According to patent US20250188095A1, “DISUBSTITUTED OCTAHYDROPYRROLO[3,4-c]PYRROLYL METHYL KETONE DERIVATIVE AND USE THEREOF” (JIANGSU NHWA PHARMACEUTICAL CO., LTD, priority 2022, published 2025):

Columns and labels:
OX2 receptor = OX2 receptor (Homo sapiens (Human), UniProt O43614); experiment: In vitro activity test (Cisbio IP-one, CHO-K1-OX2 cells, antagonism of EC80 agonist); assay type: cell-based
Procedure: (§1) (1) Preparation of a reaction buffer (1×Stimulation buffer) required for the experiment: The 5×Stimulation buffer and ddH2O in the Cisbio IP-one kit were diluted in a ratio of 1:4 for later use.
(§2) (2) Compound preparation: The compound was diluted with DMSO to obtain a 5 mM stock solution, followed by a 3.16-fold dilution to obtain 10 gradients, and then the prepared compound was diluted with the Stimulation buffer to the corresponding concentrations (4×) for later use.
(§3) (3) Cell preparation: CHO-K1-OX1 and CHO-K1-OX2 cells on the culture dish were digested with trypsin, and the cells were washed off with culture medium and collected into 5 mL centrifuge tubes. The cells were centrifuged at 1000 rpm for 5 min, and the supernatant was discarded. 3 mL of PBS was added, and the mixture was gently pipetted to be mixed well. The cells were centrifuged again at 1000 rpm for 5 min, and the supernatant was discarded. The cells were resuspended in 1×Stimulation buffer and counted using a Countstar cell counter, and the cell density was adjusted to 1.71×10^6 cells/mL for later use.
(§4) (4) Cell addition: The cell suspensions were added to assay plates at 7 μL/well (i.e., about 12,000 cells/well).
(§5) (5) Compound addition: The compound diluted with the Stimulation buffer was added to the assay plates described above at 3.5 μL/well.
(§6) (6) Reaction and incubation: After gentle shaking, the assay plates were incubated at 37° C. for 30 min.
(§7) (7) EC80 agonist addition: 4×Orexin A (OX1 receptor) and 4×Orexin 2 receptor agonist (OX2 receptor) solutions of EC80 were added at 3.5 μL/well.
(§8) (8) Reaction and incubation: After gentle shaking, the assay plates were incubated at 37° C. for 45 min.
(§9) (9) Detection reagent addition: IP1-d2 and Anti-IP1 cryptate were separately diluted in a 1:20 ratio with the Lysis & detection buffer in the Cisbio IP-one detection kit, and the diluted IP1-d2 and Anti-IP1 cryptate described above were added to the assay plates, each at 3 μL/well. After shaking, the assay plates were left to stand at room temperature for 60 min.
(§10) (10) Experimental readings: The plate was read on Envision, readings from the 665 nm and 615 nm channels were taken, and the ratio of 665 nm/615 nm readings was calculated.
(§11) Based on the antagonistic effect values of the compound sample at different concentration test points, antagonistic curves of the compound sample against the orexin receptors were fitted using GraphPad Prism software, and the IC50 was calculated.

ICR mice [1] = experiment: Pentobarbital sodium synergistic sleep test; assay type: in vivo; settings: male ICR mice, pentobarbital sodium 45 mg/kg ip, Mean±SD
Procedure: Male ICR mice aged 6-9 weeks were randomly divided into groups based on body weight balance, with 8 mice per group, and the groups were given blank vehicle and 3, 10, and 30 mg/kg of the test compound, respectively. After 5 min, pentobarbital sodium was intraperitoneally injected at 45 mg/kg. The moments when righting reflexes disappeared and the moments when righting reflexes reappeared in mice were recorded. Sleep latency=moment when righting reflex disappeared−moment when pentobarbital sodium was administered, and sleep duration=moment when righting reflex reappeared−moment when righting reflex disappeared. […] Experimental data were expressed as mean±standard deviation (Mean±SD). One-way ANOVA analysis was performed using SPSS 21.0 statistical software, and pairwise comparisons were performed using Dunnett's test, with p<0.05 represented by *.

ICR mice [2] = experiment: Autonomous activities of mice; assay type: in vivo; settings: male ICR mice; for Inhibition rate (%): vs vehicle; for Movement distance (m): within 60 min, Mean±SD
Procedure: Male ICR mice aged 6-9 weeks were randomly divided into groups based on body weight balance, with 8 or 9 mice per group, and the groups were given blank vehicle and 10, 30, and 100 mg/kg of the test compound, respectively. The animals were placed in a test chamber immediately after administration, and the activity distances of the animals within 60 min were recorded and analyzed with Top Scan Version 3.0. […] Experimental data were expressed as mean±standard deviation (Mean±SD). One-way ANOVA analysis was performed using SPSS 21.0 statistical software, and pairwise comparisons were performed using Dunnett's test, with p<0.05 represented by *.

OX1 receptor = OX1 receptor (Homo sapiens (Human), UniProt O43613); experiment: In vitro activity test (Cisbio IP-one, CHO-K1-OX1 cells, antagonism of EC80 Orexin A); assay type: cell-based
OX1 receptor, sequence (O43613 whole entry): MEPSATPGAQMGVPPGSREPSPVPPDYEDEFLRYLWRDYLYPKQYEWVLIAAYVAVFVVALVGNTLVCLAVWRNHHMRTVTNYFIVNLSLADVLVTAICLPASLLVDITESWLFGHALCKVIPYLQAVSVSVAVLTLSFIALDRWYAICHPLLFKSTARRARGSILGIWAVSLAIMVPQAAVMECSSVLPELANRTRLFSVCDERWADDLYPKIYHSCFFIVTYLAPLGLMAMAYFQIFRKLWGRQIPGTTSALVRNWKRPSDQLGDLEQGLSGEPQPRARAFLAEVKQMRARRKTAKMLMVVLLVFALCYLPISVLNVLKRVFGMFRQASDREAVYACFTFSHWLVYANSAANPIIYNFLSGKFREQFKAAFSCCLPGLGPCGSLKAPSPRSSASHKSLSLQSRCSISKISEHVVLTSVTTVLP
Procedure: as §1, §2, §3, §4, §5, §6, §7, §8, §9, §10, §11

[3] = Rat pharmacokinetic parameters in rat plasma; assay type: in vivo; settings: male SD rats; for bioavailability: PO 10 mg/kg vs iv 1 mg/kg, read-out: F (%) oral bioavailability
Procedure: Healthy male SD rats aged 6-9 weeks were selected and randomly divided into two groups, with 3 rats in each group. One group was given 1 mg/kg of the test compound by intravenous injection, and the other group was given 10 mg/kg of the test compound by gavage. Whole blood was collected from the animals in the intravenous group and the gavage group before administration and 0.083, 0.25, 0.5, 1.0, 2.0, 4.0, 7.0, 10.0, and 24.0 h after administration and centrifuged to obtain plasma samples.
All biological samples were quantitatively analyzed using the LC-MS/MS method. Pharmacokinetic parameters were calculated using the non-compartmental model linear-log trapezoidal method using WinNonlinTMVersion7.0 (Pharsight, Mountain View, CA) pharmacokinetic software. AUC0-last represents the area under the plasma concentration-time curve from time point zero to the last detectable concentration time point; PO represents oral administration; iv represents intravenous, Cmax represents the peak concentration, and F % represents oral bioavailability.

OX2 receptor, sequence (O43614 whole entry): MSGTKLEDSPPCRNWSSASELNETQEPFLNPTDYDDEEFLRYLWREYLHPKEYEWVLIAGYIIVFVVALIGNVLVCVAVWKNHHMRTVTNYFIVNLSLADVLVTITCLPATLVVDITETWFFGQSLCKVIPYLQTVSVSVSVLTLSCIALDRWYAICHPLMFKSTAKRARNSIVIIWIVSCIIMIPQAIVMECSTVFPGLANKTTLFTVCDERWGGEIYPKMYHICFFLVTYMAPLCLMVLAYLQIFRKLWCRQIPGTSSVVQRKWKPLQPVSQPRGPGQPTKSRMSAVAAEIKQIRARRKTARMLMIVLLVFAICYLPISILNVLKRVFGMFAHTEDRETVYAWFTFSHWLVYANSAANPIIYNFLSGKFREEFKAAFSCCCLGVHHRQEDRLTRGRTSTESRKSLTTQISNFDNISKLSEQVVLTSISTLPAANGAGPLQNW

Row | IC50 (OX2 receptor) | IC50 (OX1 receptor) | AUC(0-t) ([3]; PO 10 mg/kg) | Cmax ([3]; PO 10 mg/kg) | bioavailability [3] | AUC(0-t) ([3]; iv 1 mg/kg) | Cmax ([3]; iv 1 mg/kg) | SMILES | Sleep duration (ICR mice [1]; 3 mg/kg) | Sleep latency (ICR mice [1]; 3 mg/kg) | Sleep duration (ICR mice [1]; 10 mg/kg) | Sleep latency (ICR mice [1]; 10 mg/kg) | Sleep duration (ICR mice [1]; 30 mg/kg) | Sleep latency (ICR mice [1]; 30 mg/kg) | Inhibition rate (%) (ICR mice [2]; 10 mg/kg) | Movement distance (m) (ICR mice [2]; 10 mg/kg) | Inhibition rate (%) (ICR mice [2]; 30 mg/kg) | Movement distance (m) (ICR mice [2]; 30 mg/kg) | Inhibition rate (%) (ICR mice [2]; 100 mg/kg) | Movement distance (m) (ICR mice [2]; 100 mg/kg)
1 | < 100 nM | > 1000 nM | 2000 ng·h/mL | 2780 ng/mL | 56.3% | 355 ng·h/mL | 875 ng/mL | Cc1cc(C)nc(N2C[C@H]3CN(C(=O)c4c(-c5ncccc5F)cn5ccccc45)C[C@H]3C2)n1 [Example 3, ((3aR,6aS)-5-(4,6-dimethylpyrimidin-2-yl)hexahydropyrrolo[3,4-c]pyrrol-2(1H)-yl)(2-(3-fluoropyridin-2-yl)indolizin-1-yl)methanone] | 57.88 ± 23.72 min | 15.21 ± 4.60 min | 62.73 ± 29.84 min | 17.72 ± 6.04 min | 63.15 ± 34.38 min | 24.28 ± 8.97 min | −5.22% | 68.58 ± 24.42 m | 9.82% | 58.78 ± 18.31 m | 40.63% | 38.69 ± 13.98 m
2 | < 100 nM | > 1000 nM | 353 ng·h/mL | 668 ng/mL | 24.6% | 143 ng·h/mL | 439 ng/mL | Cc1cc(C)nc(N2C[C@H]3CN(C(=O)c4c(-c5ccccn5)nn5cc(F)ccc45)C[C@H]3C2)n1 [Example 30, ((3aR,6aS)-5-(4,6-dimethylpyrimidin-2-yl)hexahydropyrrolo[3,4-c]pyrrol-2(1H)-yl)(6-fluoro-2-(pyridin-2-yl)pyrazolo[1,5-a]pyridin-3-yl)methanone] | 62.34 ± 17.87 min | 5.03 ± 0.51 min | 66.79 ± 14.88 min | 5.17 ± 0.81 min | 65.61 ± 19.83 min | 6.52 ± 5.25 min | – | – | – | – | – | –
3 | < 100 nM | > 1000 nM | 560 ng·h/mL | 925 ng/mL | 25.3% | 221 ng·h/mL | 715 ng/mL | Cc1cc(C)nc(N2C[C@H]3CN(C(=O)c4c(-c5ccncc5)nn5ccccc45)C[C@H]3C2)n1 [Example 34, ((3aR,6aS)-5-(4,6-dimethylpyrimidin-2-yl)hexahydropyrrolo[3,4-c]pyrrol-2(1H)-yl)(2-(pyridin-4-yl)pyrazolo[1,5-a]pyridin-3-yl)methanone] | – | – | – | – | – | – | 8.19% | 59.84 ± 19.89 m | 28.13% | 46.84 ± 16.61 m | 50.36% | 32.36 ± 20.35 m
4 | < 100 nM | > 1000 nM | – | – | – | – | – | Cc1cc(C)nc(N2C[C@H]3CN(C(=O)c4c(-c5cccnc5)nn5ccccc45)C[C@H]3C2)n1 [Example 36, [(3aR,6aS)-5-(4,6-dimethylpyrimidin-2-yl)hexahydropyrrolo[3,4-c]pyrrol-2(1H)-yl][2-(pyridin-3-yl)pyrazolo[1,5-a]pyridin-3-yl]methanone] | 50.35 ± 9.35 min | 10.21 ± 4.49 min | 38.89 ± 10.66 min | 10.58 ± 5.65 min | 56.19 ± 27.74 min | 8.84 ± 3.67 min | 32.08% | 44.27 ± 13.76 m | 34.37% | 42.78 ± 20.27 m | 57.33% | 27.81 ± 19.12 m
5 | < 100 nM | > 1000 nM | – | – | – | – | – | Cc1cc(C)nc(N2C[C@H]3CN(C(=O)c4c(-c5cccs5)nn5cc(F)ccc45)C[C@H]3C2)n1 [Example 37, [(3aR,6aS)-5-(4,6-dimethylpyrimidin-2-yl)hexahydropyrrolo[3,4-c]pyrrol-2(1H)-yl][6-fluoro-2-(thiophen-2-yl)pyrazolo[1,5-a]pyridin-3-yl]methanone] | – | – | – | – | – | – | 5.03% | 61.90 ± 16.82 m | 37.27% | 40.89 ± 21.03 m | 39.52% | 39.42 ± 13.92 m

Row | SMILES | IC50 (OX2 receptor) | IC50 (OX1 receptor) | AUC(0-t) ([3]; PO 10 mg/kg) | Cmax ([3]; PO 10 mg/kg) | bioavailability [3] | AUC(0-t) ([3]; iv 1 mg/kg) | Cmax ([3]; iv 1 mg/kg) | Sleep duration (ICR mice [1]; 3 mg/kg) | Sleep latency (ICR mice [1]; 3 mg/kg) | Sleep duration (ICR mice [1]; 10 mg/kg) | Sleep latency (ICR mice [1]; 10 mg/kg) | Sleep duration (ICR mice [1]; 30 mg/kg) | Sleep latency (ICR mice [1]; 30 mg/kg) | Inhibition rate (%) (ICR mice [2]; 10 mg/kg) | Movement distance (m) (ICR mice [2]; 10 mg/kg) | Inhibition rate (%) (ICR mice [2]; 30 mg/kg) | Movement distance (m) (ICR mice [2]; 30 mg/kg) | Inhibition rate (%) (ICR mice [2]; 100 mg/kg) | Movement distance (m) (ICR mice [2]; 100 mg/kg)
6 | Cc1cc(C)nc(N2C[C@H]3CN(C(=O)c4c(-c5cccs5)nn5ccccc45)C[C@H]3C2)n1 [Example 5, ((3aR,6aS)-5-(4,6-dimethylpyrimidin-2-yl)hexahydropyrrolo[3,4-c]pyrrol-2(1H)-yl)(2-(thiophen-2-yl)pyrazolo[1,5-a]pyridin-3-yl)methanone] | < 100 nM | > 1000 nM | – | – | – | – | – | – | – | – | – | – | – | 2.37% | 63.64 ± 33.70 m | 46.97% | 34.56 ± 10.71 m | 49.17% | 33.13 ± 14.64 m
